Several values for one entry are separate records, joined by “and”; a condition that tells them apart may be missing. Identical values can stand only once. Each block holds one compound with its values, some of them ahead of it. Activity calls are given as the source filed them.
Key:
[1] = molecular target: Dual specificity protein phosphatase 3 (Homo sapiens, UniProt P51452); assay: VHR phosphatase inhibition, dose response, selectivity assay for STEP inhibitor project, biochemical (AID 602374); assay type: functional; details: read-out: IC50_Mean
[2] = molecular target: Tyrosine-protein phosphatase non-receptor type 5 (Homo sapiens, UniProt P54829); assay: STEP phosphatase inhibitors, confirmation, biochemical, fluorescence intensity, uHTS hits (AID 602372); assay type: functional; details: read-out: IC50_Mean
[3] = molecular target: Glucose-6-phosphate 1-dehydrogenase (Homo sapiens, UniProt P11413); assay: human G6PD enzyme inhibitors, dose response, selectivity assay for P. falciparum G6PD inhibitor project, biochemical, fluorescence (AID 504792); assay type: functional
[4] = molecular target: Tyrosine-protein phosphatase non-receptor type 11 (Homo sapiens, UniProt Q06124); assay: SHP2 phosphatase inhibition, dose response, selectivity assay for STEP inhibitor project, biochemical (AID 602367); assay type: functional; details: read-out: IC50_Mean
Aurora kinase B = Aurora kinase B (Homo sapiens, UniProt Q96GD4); assay type: functional
Aurora kinase A = molecular target: T1, Aurora kinase A (Homo sapiens, UniProt O14965); assay type: functional;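 also: value from the Navigating the Kinome kinase panel profiling, panel entry STK6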
T1 sequence (O14965 whole entry): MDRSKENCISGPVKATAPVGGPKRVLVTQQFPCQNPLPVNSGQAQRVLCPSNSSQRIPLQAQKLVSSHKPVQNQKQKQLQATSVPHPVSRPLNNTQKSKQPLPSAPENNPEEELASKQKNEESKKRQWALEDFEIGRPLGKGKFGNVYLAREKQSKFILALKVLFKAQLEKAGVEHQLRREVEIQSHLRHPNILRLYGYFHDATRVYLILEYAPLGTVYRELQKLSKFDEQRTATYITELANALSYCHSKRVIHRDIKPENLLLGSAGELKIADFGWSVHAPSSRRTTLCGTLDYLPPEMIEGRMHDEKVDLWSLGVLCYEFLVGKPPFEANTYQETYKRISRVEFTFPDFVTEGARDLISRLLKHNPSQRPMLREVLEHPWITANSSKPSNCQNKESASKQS

[5] = molecular target: Vascular endothelial growth factor receptor 2 (Homo sapiens, UniProt P35968); assay type: functional
Cytochrome P450 1A2 = molecular target: T2, Cytochrome P450 1A2 (Homo sapiens, UniProt P05177);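 also: PubChem cytochrome P450 panel assay, CYP1A2 panel member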
T2 sequence (P05177 whole entry): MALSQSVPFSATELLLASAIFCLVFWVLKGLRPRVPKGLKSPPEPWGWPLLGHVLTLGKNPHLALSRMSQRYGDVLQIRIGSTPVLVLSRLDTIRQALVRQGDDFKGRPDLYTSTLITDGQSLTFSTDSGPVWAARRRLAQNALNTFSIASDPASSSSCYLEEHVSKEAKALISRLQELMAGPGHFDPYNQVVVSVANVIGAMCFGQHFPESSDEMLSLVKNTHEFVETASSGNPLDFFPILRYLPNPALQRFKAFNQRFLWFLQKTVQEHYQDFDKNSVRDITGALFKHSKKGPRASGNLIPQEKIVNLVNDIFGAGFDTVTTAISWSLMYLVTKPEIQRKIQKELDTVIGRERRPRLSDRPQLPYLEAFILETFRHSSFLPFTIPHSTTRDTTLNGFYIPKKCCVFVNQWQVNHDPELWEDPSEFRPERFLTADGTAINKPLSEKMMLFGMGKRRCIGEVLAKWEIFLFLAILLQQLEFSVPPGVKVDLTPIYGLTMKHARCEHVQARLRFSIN

Cytochrome P450 2D6 = Cytochrome P450 2D6 (Homo sapiens, UniProt P10635);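 also: CYP2D6 member of a cytochrome P450 panel assay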
Cytochrome P450 2C19 = Cytochrome P450 2C19 (Homo sapiens, UniProt P33261); assay: Cytochrome panel assay with activity outcomes. Panel member name: p450-cyp2c19 Compounds with AC50 equal or less than 10 uM are considered active; assay type: functional; details: read-out: AC50
Cytochrome P450 2C9 = Cytochrome P450 2C9 (Homo sapiens, UniProt P11712)
Cytochrome P450 3A4 = Cytochrome P450 3A4 (Homo sapiens, UniProt P08684);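 also: CYP3A4 tested as one member of a cytochrome P450 panel screen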
HeLa = assay: HeLa cell cytotoxicity, dose response, cytotoxicity control for MITF activator project, CellTiter-Glo luminescence, cherry-pick samples (AID 540259); assay type: functional, cell-based; details: Homo sapiens

Chain of Aurora kinase B (Q96GD4 whole entry): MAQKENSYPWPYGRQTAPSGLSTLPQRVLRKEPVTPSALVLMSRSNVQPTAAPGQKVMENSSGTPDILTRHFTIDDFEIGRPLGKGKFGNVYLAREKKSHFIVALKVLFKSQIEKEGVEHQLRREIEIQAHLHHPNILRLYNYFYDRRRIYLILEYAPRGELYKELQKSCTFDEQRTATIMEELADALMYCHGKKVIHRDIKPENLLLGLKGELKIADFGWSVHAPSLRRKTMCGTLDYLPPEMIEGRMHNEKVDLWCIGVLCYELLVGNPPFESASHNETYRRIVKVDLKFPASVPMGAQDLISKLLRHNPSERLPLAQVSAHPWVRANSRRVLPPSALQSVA
Chain of Vascular endothelial growth factor receptor 2 (P35968 whole entry): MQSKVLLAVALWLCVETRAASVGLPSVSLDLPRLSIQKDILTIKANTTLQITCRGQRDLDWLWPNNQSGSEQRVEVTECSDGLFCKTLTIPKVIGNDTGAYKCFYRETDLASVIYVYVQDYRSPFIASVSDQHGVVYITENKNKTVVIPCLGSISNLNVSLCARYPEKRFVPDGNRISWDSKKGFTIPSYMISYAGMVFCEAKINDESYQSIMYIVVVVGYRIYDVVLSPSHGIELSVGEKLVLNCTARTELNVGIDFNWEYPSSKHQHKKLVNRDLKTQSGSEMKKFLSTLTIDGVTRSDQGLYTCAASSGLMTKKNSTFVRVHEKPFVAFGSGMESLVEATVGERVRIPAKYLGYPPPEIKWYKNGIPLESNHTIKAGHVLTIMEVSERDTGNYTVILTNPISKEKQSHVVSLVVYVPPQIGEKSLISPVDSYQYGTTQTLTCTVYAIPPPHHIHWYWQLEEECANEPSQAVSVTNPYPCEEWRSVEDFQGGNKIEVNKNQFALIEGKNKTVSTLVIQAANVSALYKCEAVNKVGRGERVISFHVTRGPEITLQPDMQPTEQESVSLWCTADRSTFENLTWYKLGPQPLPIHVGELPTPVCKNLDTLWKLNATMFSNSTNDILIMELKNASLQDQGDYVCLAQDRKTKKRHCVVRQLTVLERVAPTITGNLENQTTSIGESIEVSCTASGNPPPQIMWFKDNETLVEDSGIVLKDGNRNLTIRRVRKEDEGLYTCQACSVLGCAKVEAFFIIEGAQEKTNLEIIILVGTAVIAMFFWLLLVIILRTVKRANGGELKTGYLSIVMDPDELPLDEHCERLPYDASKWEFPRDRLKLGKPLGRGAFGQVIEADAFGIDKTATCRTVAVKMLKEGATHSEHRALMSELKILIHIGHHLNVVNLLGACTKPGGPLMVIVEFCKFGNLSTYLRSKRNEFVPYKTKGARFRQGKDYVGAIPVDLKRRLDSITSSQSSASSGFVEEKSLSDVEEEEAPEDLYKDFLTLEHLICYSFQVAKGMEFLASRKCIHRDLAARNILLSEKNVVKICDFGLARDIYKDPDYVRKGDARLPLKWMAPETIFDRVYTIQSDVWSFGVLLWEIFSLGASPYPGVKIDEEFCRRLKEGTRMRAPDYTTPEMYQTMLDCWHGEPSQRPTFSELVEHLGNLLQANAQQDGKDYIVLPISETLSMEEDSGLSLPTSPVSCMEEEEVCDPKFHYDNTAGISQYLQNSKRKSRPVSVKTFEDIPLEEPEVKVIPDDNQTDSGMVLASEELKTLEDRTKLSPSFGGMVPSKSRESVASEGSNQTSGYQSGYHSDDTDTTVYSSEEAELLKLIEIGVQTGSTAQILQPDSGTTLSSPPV
Chain of Glucose-6-phosphate 1-dehydrogenase (P11413 whole entry): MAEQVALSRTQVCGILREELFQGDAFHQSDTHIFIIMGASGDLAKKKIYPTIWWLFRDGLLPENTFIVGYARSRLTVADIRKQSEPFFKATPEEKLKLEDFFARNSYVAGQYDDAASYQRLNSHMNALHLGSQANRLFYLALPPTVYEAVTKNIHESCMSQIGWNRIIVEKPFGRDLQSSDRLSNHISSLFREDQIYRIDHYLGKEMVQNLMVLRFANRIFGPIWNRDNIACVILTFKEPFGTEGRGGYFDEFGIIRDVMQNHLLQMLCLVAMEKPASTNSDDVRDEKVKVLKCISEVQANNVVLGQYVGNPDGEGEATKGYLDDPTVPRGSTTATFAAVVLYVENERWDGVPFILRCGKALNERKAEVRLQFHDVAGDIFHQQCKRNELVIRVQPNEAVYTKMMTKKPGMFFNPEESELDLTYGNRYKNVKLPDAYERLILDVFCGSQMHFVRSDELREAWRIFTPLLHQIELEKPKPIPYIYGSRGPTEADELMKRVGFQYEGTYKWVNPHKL
Chain of Cytochrome P450 2D6 (P10635 whole entry): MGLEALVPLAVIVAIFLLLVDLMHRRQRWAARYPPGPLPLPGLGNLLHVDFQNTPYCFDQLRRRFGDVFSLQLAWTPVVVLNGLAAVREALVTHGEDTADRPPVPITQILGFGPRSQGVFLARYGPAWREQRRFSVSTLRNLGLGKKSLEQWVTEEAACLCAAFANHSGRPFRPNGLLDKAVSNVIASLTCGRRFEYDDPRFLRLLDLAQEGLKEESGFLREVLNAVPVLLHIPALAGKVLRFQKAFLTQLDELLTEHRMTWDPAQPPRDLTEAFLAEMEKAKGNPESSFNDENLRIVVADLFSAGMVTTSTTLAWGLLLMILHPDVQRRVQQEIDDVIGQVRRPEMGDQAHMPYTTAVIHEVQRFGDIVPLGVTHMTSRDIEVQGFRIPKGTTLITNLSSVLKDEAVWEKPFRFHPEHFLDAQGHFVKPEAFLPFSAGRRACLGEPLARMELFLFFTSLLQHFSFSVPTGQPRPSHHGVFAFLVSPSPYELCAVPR
Chain of Tyrosine-protein phosphatase non-receptor type 5 (P54829 whole entry): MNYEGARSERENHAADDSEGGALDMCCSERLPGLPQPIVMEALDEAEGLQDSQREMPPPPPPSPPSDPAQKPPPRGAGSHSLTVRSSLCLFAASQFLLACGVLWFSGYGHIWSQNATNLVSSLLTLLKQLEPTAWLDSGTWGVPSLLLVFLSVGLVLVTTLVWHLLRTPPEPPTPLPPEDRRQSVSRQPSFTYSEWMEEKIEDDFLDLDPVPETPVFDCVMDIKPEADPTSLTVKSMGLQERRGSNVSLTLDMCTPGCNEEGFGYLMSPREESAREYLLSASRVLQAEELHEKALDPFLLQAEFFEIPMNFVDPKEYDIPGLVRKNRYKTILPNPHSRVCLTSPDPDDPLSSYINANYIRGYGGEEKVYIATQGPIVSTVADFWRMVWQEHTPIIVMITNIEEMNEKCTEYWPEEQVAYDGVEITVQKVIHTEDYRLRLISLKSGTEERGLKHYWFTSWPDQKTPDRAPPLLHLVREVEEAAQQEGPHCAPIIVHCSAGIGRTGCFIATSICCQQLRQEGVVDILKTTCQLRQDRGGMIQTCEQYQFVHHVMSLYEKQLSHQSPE
Chain of Cytochrome P450 2C19 (P33261 whole entry): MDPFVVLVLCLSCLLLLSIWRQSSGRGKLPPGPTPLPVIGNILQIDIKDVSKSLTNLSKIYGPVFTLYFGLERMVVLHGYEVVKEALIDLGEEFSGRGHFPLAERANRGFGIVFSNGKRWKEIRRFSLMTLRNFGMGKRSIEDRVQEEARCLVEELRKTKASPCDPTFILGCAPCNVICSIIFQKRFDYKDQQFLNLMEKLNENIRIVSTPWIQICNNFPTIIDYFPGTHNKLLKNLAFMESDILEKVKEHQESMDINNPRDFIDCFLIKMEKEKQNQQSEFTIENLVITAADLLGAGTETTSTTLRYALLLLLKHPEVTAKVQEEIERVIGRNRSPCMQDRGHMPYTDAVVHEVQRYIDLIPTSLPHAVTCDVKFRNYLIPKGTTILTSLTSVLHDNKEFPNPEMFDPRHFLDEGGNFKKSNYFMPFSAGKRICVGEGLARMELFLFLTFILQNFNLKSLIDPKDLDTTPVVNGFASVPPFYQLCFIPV
Chain of Cytochrome P450 2C9 (P11712 whole entry): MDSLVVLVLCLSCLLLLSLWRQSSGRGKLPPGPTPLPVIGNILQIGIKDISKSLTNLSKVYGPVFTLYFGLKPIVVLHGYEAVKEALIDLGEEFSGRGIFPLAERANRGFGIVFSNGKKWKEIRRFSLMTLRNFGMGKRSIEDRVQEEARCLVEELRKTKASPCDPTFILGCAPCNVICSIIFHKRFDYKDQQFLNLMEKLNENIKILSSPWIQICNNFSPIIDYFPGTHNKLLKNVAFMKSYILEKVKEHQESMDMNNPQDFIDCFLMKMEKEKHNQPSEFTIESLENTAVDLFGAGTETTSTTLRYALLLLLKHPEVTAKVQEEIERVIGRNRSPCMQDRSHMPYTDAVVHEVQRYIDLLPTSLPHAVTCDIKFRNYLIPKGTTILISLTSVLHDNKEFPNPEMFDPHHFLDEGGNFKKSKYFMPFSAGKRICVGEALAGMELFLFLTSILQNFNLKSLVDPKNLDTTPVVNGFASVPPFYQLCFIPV
Chain of Dual specificity protein phosphatase 3 (P51452 whole entry): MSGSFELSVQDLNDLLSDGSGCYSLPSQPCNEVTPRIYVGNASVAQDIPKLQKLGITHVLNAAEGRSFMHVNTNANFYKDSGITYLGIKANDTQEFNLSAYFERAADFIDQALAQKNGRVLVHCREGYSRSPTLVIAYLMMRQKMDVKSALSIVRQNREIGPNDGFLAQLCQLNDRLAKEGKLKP
Chain of Cytochrome P450 3A4 (P08684 whole entry): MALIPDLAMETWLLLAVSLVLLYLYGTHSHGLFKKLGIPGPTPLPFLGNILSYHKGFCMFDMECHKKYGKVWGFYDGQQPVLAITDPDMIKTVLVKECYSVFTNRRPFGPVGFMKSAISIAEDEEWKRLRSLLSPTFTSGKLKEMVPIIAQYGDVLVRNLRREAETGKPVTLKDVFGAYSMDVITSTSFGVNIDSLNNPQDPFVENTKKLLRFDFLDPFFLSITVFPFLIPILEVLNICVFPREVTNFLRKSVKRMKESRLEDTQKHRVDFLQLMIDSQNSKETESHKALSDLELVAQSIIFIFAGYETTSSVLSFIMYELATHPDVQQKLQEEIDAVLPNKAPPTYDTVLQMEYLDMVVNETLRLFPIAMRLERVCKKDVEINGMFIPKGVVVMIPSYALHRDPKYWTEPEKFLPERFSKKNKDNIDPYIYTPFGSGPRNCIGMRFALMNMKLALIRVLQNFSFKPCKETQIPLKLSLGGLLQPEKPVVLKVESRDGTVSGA

SMILES: O=S(=O)(Nc1ccc(Cl)cc1)c1ccc(N2CCOCC2)c(NC(=S)NCCN2CCOCC2)c1
IC50 [1]: 342 nM (active)
IC50 [2]: 8.03 µM (active)
IC50 [3]: > 80 µM (inactive)
IC50 [4]: 1.1 µM (active)

Ki (Aurora kinase B): 6.31 nM (active) and 15.8 nM (active)
Ki (Aurora kinase A): > 2 µM (inactive) and 2 µM (active)
Ki [5]: 3.98 µM (active) and 794 nM (active)
SMILES: COc1cccc(S(=O)(=O)Nc2ccc3c(c2)C(=NO)c2ccccc2-3)c1

AC50 (Cytochrome P450 1A2): inconclusive
SMILES: COC(=O)[C@@]1(Cc2ccc(F)cc2)[C@H]2c3cc(C(=O)N(C)C)n(Cc4cc(F)c(F)c(F)c4)c3C[C@H]2CN1C(=O)c1ccccc1

AC50 (Cytochrome P450 2D6): 25.1 µM (inconclusive)
AC50 (Cytochrome P450 1A2): inconclusive
AC50 (Cytochrome P450 2C19): 22.4 µM (inconclusive)
SMILES: COCCCNC(=O)C1CCC(=O)N1Cc1ccccc1Cl (stereo not given)

AC50 (Cytochrome P450 2C9): inconclusive
AC50 (Cytochrome P450 1A2): inconclusive
AC50 (Cytochrome P450 3A4): 7.94 µM (inconclusive)
SMILES: COc1ccc(NC(=O)N2CC[C@@]3(CCCN(C(=O)c4c(C)noc4C)C3)C2)cc1

SMILES: CCCC(=O)Nc1ccc(C#Cc2ccccc2)cc1
AC50 (HeLa): 173 µM (active)
